Our source for the GI50 and TGI values is PubChem BioAssay (NCI).

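1) Cells in 96-well plates. 2) Compound, 48 h, 5 concentrations. 3) Linear interpolation between surrounding doses. 4) Unreached endpoint = highest concentration. The concentration for 50% growth inhibition is given as GI50. TGI: concentration producing complete growth inhibition.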 Where only a bound is given, the exact number is not on record here.

Some test systems named below: IGROV1 ovarian; SK-MEL-2 melanoma; UACC-257 melanoma; CCRF-CEM leukemia; SNB-75 CNS; A498 renal; TK-10 renal; SF-295 CNS; MCF7 breast; COLO 205 colon.
Test in all cases: DTP human tumour cell line panel, 48 h

For the molecule `NC(N)=Nc1ccc(/C=C2\C=Cc3ccccc32)cc1`, the GI50 in the test on IGROV1 ovarian was 2.02 µM; in the test with SK-MEL-2 melanoma it was 4.83 µM; in the test with UACC-257 melanoma, 4.99 µM; with CCRF-CEM leukemia, 2.09 µM; in the test on SNB-75 CNS, 2.22 µM; in the test on A498 renal it was 4.83 µM. The GI50 with TK-10 renal is 2.02 µM; in the test with SF-295 CNS, 7.28 µM; in the test with MCF7 breast, 0.523 µM; with COLO 205 colon it was 1.99 µM. Also, the total growth inhibition concentration (TGI) is 5.12 µM in the test with IGROV1 ovarian; 11.6 µM in the test on SK-MEL-2 melanoma; 18.3 µM in the test on UACC-257 melanoma; 4.9 µM in the test with CCRF-CEM leukemia; 8.99 µM with SNB-75 CNS; 19.2 µM in the test with A498 renal. Moreover, the TGI with TK-10 renal was determined as 4.04 µM; in the test with SF-295 CNS it was 24.6 µM; in the test with MCF7 breast it was 2.37 µM; in the test with COLO 205 colon, 3.7 µM.

With `Cc1ccccc1C(C(=O)NC1CCCCC1)N(C(=O)CNc1ccc(C#N)cc1)c1cccc(F)c1` (stereo not given), the GI50 was 25 µM in the test with IGROV1 ovarian; 13.1 µM in the test on SK-MEL-2 melanoma; 50 µM in the test on UACC-257 melanoma; above 100 µM with CCRF-CEM leukemia; 1.38 µM with SNB-75 CNS; 24 µM with A498 renal. Moreover, the GI50 is 24 µM in the test on TK-10 renal, 13.8 µM in the test on SF-295 CNS, 49.8 µM in the test on MCF7 breast and above 83.2 µM in the test with COLO 205 colon. For the same molecule, the TGI was above 100 µM with IGROV1 ovarian; 32.5 µM in the test on SK-MEL-2 melanoma; above 100 µM with UACC-257 melanoma; above 100 µM with CCRF-CEM leukemia; 8.97 µM in the test on SNB-75 CNS; 74.4 µM in the test on A498 renal. Further, the concentration for total growth inhibition (TGI) in the test with TK-10 renal is 71.7 µM; in the test with SF-295 CNS, 44.6 µM; in the test on MCF7 breast it was above 100 µM; in the test with COLO 205 colon, above 100 µM.

In the case of `CCOC(=O)c1cc(NS(=O)(=O)c2ccc(C)cc2)cc(C(=O)OCC)c1`, the GI50 in the test on IGROV1 ovarian is 51.7 µM; with SK-MEL-2 melanoma, 28.3 µM; in the test with UACC-257 melanoma, 45.5 µM; with CCRF-CEM leukemia, 37.2 µM; in the test on SNB-75 CNS it was 23.1 µM; in the test with A498 renal, 34.3 µM. The GI50 is above 100 µM in the test on TK-10 renal, 44.9 µM with SF-295 CNS, 28 µM in the test with MCF7 breast and 36.1 µM in the test with COLO 205 colon. Also, the TGI is above 100 µM in the test with IGROV1 ovarian; above 100 µM in the test on SK-MEL-2 melanoma; above 100 µM with UACC-257 melanoma; above 100 µM with CCRF-CEM leukemia; 68.9 µM with SNB-75 CNS; above 100 µM in the test with A498 renal. Moreover, the total growth inhibition concentration (TGI) with TK-10 renal, in the test with SF-295 CNS, in the test on MCF7 breast and in the test on COLO 205 colon was above 100 µM throughout.

Regarding `CC/C=C\C[C@H](O)C/C=C1/C(=O)C=C[C@@H]1C/C=C\CCCCO`, the GI50 in the test on IGROV1 ovarian was 3.22 µM; in the test on SK-MEL-2 melanoma, 5.96 µM; in the test on UACC-257 melanoma, 2.59 µM; with CCRF-CEM leukemia, 2.43 µM; in the test on SNB-75 CNS it was 11 µM; in the test with A498 renal it was 16.8 µM. Moreover, the GI50 with TK-10 renal was 3.31 µM; in the test on SF-295 CNS, 2.39 µM; in the test with MCF7 breast it was 0.544 µM; with COLO 205 colon it was 2.45 µM. Besides, the TGI in the test on IGROV1 ovarian is 12 µM; in the test on SK-MEL-2 melanoma, 22.6 µM; with UACC-257 melanoma it was 9.36 µM; in the test with CCRF-CEM leukemia it was 16.5 µM; with SNB-75 CNS, 38.4 µM; in the test with A498 renal it was 32.5 µM. Besides, the TGI was found to be 9.22 µM in the test with TK-10 renal, 6.34 µM in the test on SF-295 CNS, 10.6 µM with MCF7 breast and 5.99 µM in the test on COLO 205 colon.

Take `CC(C)Cc1ccc(C(C)C(=O)NCc2ccc(Cn3c(=O)sn(CCCI)c3=O)cc2)cc1` (stereo not given): the GI50 in the test with IGROV1 ovarian was 0.453 µM; with SK-MEL-2 melanoma, 1.34 µM; with UACC-257 melanoma, 1.28 µM; with CCRF-CEM leukemia, 0.279 µM; in the test on SNB-75 CNS, 0.558 µM; with A498 renal it was 1.43 µM. Moreover, the GI50 in the test on TK-10 renal was 0.373 µM; in the test with SF-295 CNS it was 1.56 µM; in the test with MCF7 breast, 0.397 µM; in the test on COLO 205 colon it was 0.271 µM. Further, the TGI is 1.38 µM in the test on IGROV1 ovarian; 2.88 µM in the test with SK-MEL-2 melanoma; 2.7 µM in the test on UACC-257 melanoma; above 100 µM with CCRF-CEM leukemia; 1.96 µM in the test with SNB-75 CNS; 2.75 µM in the test on A498 renal. Also, the TGI amounted to 0.95 µM in the test on TK-10 renal, 3.08 µM in the test with SF-295 CNS, 2.03 µM in the test with MCF7 breast and 1.14 µM in the test with COLO 205 colon.

As to `O=C1NC(=NCCc2ccccn2)S/C1=C\c1ccc2ncccc2c1`, the GI50 is 9.29 µM in the test with IGROV1 ovarian; 9.02 µM in the test with SK-MEL-2 melanoma; 15.4 µM in the test with UACC-257 melanoma; 10.6 µM in the test with CCRF-CEM leukemia; 1.69 µM with SNB-75 CNS; 4.62 µM in the test with A498 renal. Moreover, the GI50 in the test with TK-10 renal is 7.33 µM; in the test on SF-295 CNS, above 16.1 µM; with MCF7 breast, 10.5 µM; in the test on COLO 205 colon it was 9.05 µM. In addition, the TGI is above 25 µM in the test with IGROV1 ovarian; above 22.2 µM with SK-MEL-2 melanoma; above 25 µM with UACC-257 melanoma; above 25 µM in the test with CCRF-CEM leukemia; above 20.7 µM in the test on SNB-75 CNS; 21.1 µM in the test with A498 renal. The TGI in the test with TK-10 renal is 24.5 µM; in the test on SF-295 CNS it was above 25 µM; with MCF7 breast, above 25 µM; in the test with COLO 205 colon it was above 25 µM.

In the case of `CN(C)C=Nc1c(I)cc(I)c(CCC(=O)O)c1I`, the GI50 in the test with IGROV1 ovarian is above 100 µM; in the test with SK-MEL-2 melanoma it was above 100 µM; in the test with UACC-257 melanoma, above 100 µM; with CCRF-CEM leukemia it was above 100 µM; with SNB-75 CNS, above 100 µM; in the test with A498 renal, 81.6 µM. Moreover, the GI50 in the test with TK-10 renal, with SF-295 CNS, in the test on MCF7 breast and in the test with COLO 205 colon was above 100 µM in each case. Further, the TGI in the test on IGROV1 ovarian, in the test with SK-MEL-2 melanoma, in the test with UACC-257 melanoma, in the test with CCRF-CEM leukemia, in the test on SNB-75 CNS and in the test with A498 renal was above 100 µM each time. Also, the total growth inhibition concentration (TGI) in the test on TK-10 renal, in the test with SF-295 CNS, with MCF7 breast and with COLO 205 colon was above 100 µM throughout.
